Test results published in patent publication US20190209501A1, “COMPOSITIONS AND METHODS OF USE OF BETA-HYDROXY-BETA-METHYLBUTYRATE (HMB) […] IN[…]” (Texas Tech University Office of Research Commercialization, priority 2018, published 2019).

Columns and labels:
[1] = Questionnaires (Mood and Feelings, Pittsburgh Sleep Quality Index, Three-Factor Eating); assay type: in vivo, human; conditions: for MFQ Δ / MFQ Δ (%) / PSQI Δ / PSQI Δ (%) / TFEQ-CR Δ / TFEQ-CR Δ (%) / TFEQ-EE Δ / TFEQ-EE Δ (%) / TFEQ-UE Δ / TFEQ-UE Δ (%): change baseline to W 8
Description: As part of the screening procedures, participants were interviewed using a lifestyle questionnaire for determination of baseline eating and exercise habits. Participants completed follow-up lifestyle questionnaires at subsequent research visits. Additionally, participants completed the Mood and Feelings Questionnaire (38), the Pittsburgh Sleep Quality Index (39), the Three-Factor Eating Questionnaire Revised 18-item version (40) and a menstrual cycle questionnaire at each morning laboratory assessment session.

[2] = Isokinetic squat peak force on mechanized squat device; assay type: in vivo, human; conditions: for PFCON ES (d) / PFECC ES (d): Cohen's d baseline vs week 8; for PFCON Δ (%) / PFECC Δ (%): change baseline to week 8 relative to baseline; for PFCON (N) Week 4 / PFCON (N) Week 8: concentric peak force; for PFCON (N) Week 4 / PFCON (N) Week 8 / PFECC (N) Week 4 / PFECC (N) Week 8: mean ± SE; for PFECC (N) Week 4 / PFECC (N) Week 8: eccentric peak force; for PFCON (N) Δ / PFECC (N) Δ: week 8 minus baseline
Description: Assessments of muscular performance took place between 12:00 and 18:00 in the non-fasted state, and participants were instructed to follow their preferred food and fluid intake patterns prior to testing. The assessment began with a 5-minute warm up period using a self-selected pace on a stationary bicycle. This warm up period was followed by assessment of countermovement vertical jumps (CMVJ) performance, testing on a mechanized squat device, and muscular strength and endurance assessment on the bench press and hip sled exercises. At the 4-week assessment, the CMVJ and hip sled assessments were not performed.
Isometric and isokinetic squats were performed using a mechanized squat device (Exerbotics eSq, Tulsa, Okla., USA) (31, 32). At the first assessment, each participant's preferred foot positioning was determined using a custom grid overlaid on the foot platform of the squat device. This foot positioning was recorded and utilized for all visits. No weight belts, knee wraps, or other aids were utilized during testing. Prior to testing, the participant's range of motion for isokinetic testing was determined. The range of motion was set to 90° between the thigh and lower leg at the bottom of the repetition and approximately 170° at the top of the repetition, as determined by a goniometer. The isometric testing included maximal effort pushes at 120° and 150° knee angles. Each participant was instructed to push against the device as hard and fast as possible while attempting to complete a squat movement. Two isometric pushes were performed at each knee angle, and each effort lasted approximately 2 to 3 seconds. After the isometric testing, a 3-repetition maximum isokinetic force production test was completed. Prior to testing, participants observed the movement of the machine and received verbal instruction regarding proper performance of the assessment. Each of the repetitions during the maximal isokinetic force production test consisted of a 4-second eccentric phase, followed by an approximately half-second pause at the 90° knee position and a 4-second concentric phase. During testing, the force signal was sampled from the load cell at 1 kHz (MP100; Biopac Systems, Inc, Santa Barbara, Calif., USA), stored on a personal computer, and processed off-line using custom-written software (LabVIEW, Version 11.0; National Instruments, Austin, Tex., USA). The scaled force signal was low-pass filtered, with a 10-Hz cutoff (zero-phase lag, fourth-order Butterworth filter). All subsequent analyses were conducted on the scaled and filtered force signal. For the isometric force production tests, the rate of force development (RFD) over specific time intervals (i.e. 30, 50, 100 and 200 ms) was calculated by manually specifying the onset of force production within the custom LabVIEW program. For each repetition of the maximum isokinetic force production test, isokinetic peak forces (PF) were determined as the highest mean 25-ms epoch for both concentric and eccentric testing (i.e. PFCONC and PFECC).

CC(C)(O)CC(=O)O [TRFHMB, β-hydroxy-β-methylbutyrate]
MFQ score ([1]; ITT, Baseline, mean ± SE): 1.4 ± 0.6
PSQI score ([1]; ITT, Baseline, mean ± SE): 3.1 ± 0.3
TFEQ-CR score ([1]; ITT, Baseline, mean ± SE): 17.8 ± 1
TFEQ-UE score ([1]; ITT, Baseline, mean ± SE): 20.0 ± 1.2
MFQ score ([1]; ITT, W 4, mean ± SE): 0.7 ± 0.4
PSQI score ([1]; ITT, W 4, mean ± SE): 3.0 ± 0.3
TFEQ-CR score ([1]; ITT, W 4, mean ± SE): 18.0 ± 1
TFEQ-EE score ([1]; ITT, W 4, mean ± SE): 4.9 ± 0.5
TFEQ-UE score ([1]; ITT, W 4, mean ± SE): 18.1 ± 1.4
MFQ score ([1]; ITT, W 8, mean ± SE): 0.4 ± 0.4
PSQI score ([1]; ITT, W 8, mean ± SE): 2.7 ± 0.2
TFEQ-CR score ([1]; ITT, W 8, mean ± SE): 18.2 ± 1.1
TFEQ-EE score ([1]; ITT, W 8, mean ± SE): 4.5 ± 0.6
TFEQ-UE score ([1]; ITT, W 8, mean ± SE): 16.3 ± 1.3
MFQ Δ ([1]; ITT): −1.0
MFQ Δ (%) ([1]; ITT): −71%
PSQI Δ ([1]; ITT): −0.4
PSQI Δ (%) ([1]; ITT): −13%
TFEQ-CR Δ ([1]; ITT): 0.4
TFEQ-CR Δ (%) ([1]; ITT): 2%
TFEQ-EE Δ ([1]; ITT): −0.9
TFEQ-EE Δ (%) ([1]; ITT): −17%
TFEQ-UE Δ ([1]; ITT): −3.7
TFEQ-UE Δ (%) ([1]; ITT): −19%
MFQ (Mood and Feelings Questionnaire) score ([1]; PP, Baseline, mean ± SE): 1.1 ± 0.7
PSQI (Pittsburgh Sleep Quality Index) score ([1]; PP, Baseline, mean ± SE): 3.1 ± 0.3
TFEQ-CR (Three-Factor Eating Questionnaire, Cognitive Restraint) score ([1]; PP, Baseline, mean ± SE): 17.1 ± 1.2
TFEQ-EE (Emotional Eating) score ([1]; PP, Baseline, mean ± SE): 4.9 ± 0.6
TFEQ-UE (Uncontrolled Eating) score ([1]; PP, Baseline, mean ± SE): 18.4 ± 1.3
MFQ score ([1]; PP, W 4, mean ± SE): 0.6 ± 0.5
PSQI score ([1]; PP, W 4, mean ± SE): 2.7 ± 0.3
TFEQ-CR score ([1]; PP, W 4, mean ± SE): 18.3 ± 1.2
TFEQ-EE score ([1]; PP, W 4, mean ± SE): 4.4 ± 0.7
TFEQ-UE score ([1]; PP, W 4, mean ± SE): 18.7 ± 2.0
MFQ score ([1]; PP, W 8, mean ± SE): 0.1 ± 0.5
PSQI score ([1]; PP, W 8, mean ± SE): 2.6 ± 0.3
TFEQ-CR score ([1]; PP, W 8, mean ± SE): 18.8 ± 1.1
TFEQ-EE score ([1]; PP, W 8, mean ± SE): 3.7 ± 0.7
TFEQ-UE score ([1]; PP, W 8, mean ± SE): 15.5 ± 1.8
MFQ Δ ([1]; PP): −1.0
MFQ Δ (%) ([1]; PP): −91%
PSQI Δ ([1]; PP): −0.5
PSQI Δ (%) ([1]; PP): −16%
TFEQ-CR Δ ([1]; PP): 1.7
TFEQ-CR Δ (%) ([1]; PP): 10%
TFEQ-EE Δ ([1]; PP): −1.2
TFEQ-EE Δ (%) ([1]; PP): −24%
TFEQ-UE Δ ([1]; PP): −2.9
TFEQ-UE Δ (%) ([1]; PP): −16%
Average effect size for tests of lower body force generation (1RMLP, PFCON, PFECC, RFD) ([2]; Cohen's d, vs 0.3-0.4 in TRF or CD): 0.6-0.7
PFCON ES (d) ([2]; ITT analysis): 0.83
PFECC ES (d) ([2]; ITT analysis): 0.60
PFCON Δ (%) ([2]; ITT analysis): 29%
PFECC Δ (%) ([2]; ITT analysis): 19%
PFCON (N) Week 4 ([2]; ITT analysis): 1195 ± 92 N
PFCON (N) Week 8 ([2]; ITT analysis): 1324 ± 112 N
PFECC (N) Week 4 ([2]; ITT analysis): 1301 ± 93 N
PFECC (N) Week 8 ([2]; ITT analysis): 1407 ± 95 N
PFCON (N) Δ ([2]; ITT analysis): 295 N
PFECC (N) Δ ([2]; ITT analysis): 223 N
PFCON ES (d) ([2]; PP analysis): 0.95
PFECC ES (d) ([2]; PP analysis): 0.48
PFCON Δ (%) ([2]; PP analysis): 31%
PFECC Δ (%) ([2]; PP analysis): 14%
PFCON (N) Week 4 ([2]; PP analysis): 1247 ± 133 N
PFCON (N) Week 8 ([2]; PP analysis): 1418 ± 154 N
PFECC (N) Week 4 ([2]; PP analysis): 1311 ± 136 N
PFECC (N) Week 8 ([2]; PP analysis): 1475 ± 133 N
PFCON (N) Δ ([2]; PP analysis): 336 N
PFECC (N) Δ ([2]; PP analysis): 184 N
